Test results from patent US20030187067A1, “Use of anethole-dithiolethione for preventing and treating drug-induced tendon toxicity” (priority 2000, published 2003).

Tested on: immortalised tenocytes, known as TENO (Teno Cell Line)
Test: type II MIFALC (Microtitration Fluorimetric Assay on Living Cells) test, H2DCF-DA fluorescence, tendon toxicity of fluoroquinolones/statins
Format: cell-based
Settings: pretreatment with anethole-dithiolethione 20 μM, 72 hours before contact with the xenobiotics; free radicals by H2DCF-DA fluorescence read after 40 minutes
Description: The test carried out is a type II MIFALC (Microtitration Fluorimetric Assay on Living Cells) test, that is to say that all of the steps, including detection/disclosure, are carried out on living cells, the test using fluorimetric detection under cold light, in order to achieve the maximum level of detection sensitivity and specificity necessary for the intracellular studies. The tests are carried out on a line of immortalised tenocytes, known as TENO (Teno Cell Line).
The cultures are produced in […] flasks for cell multiplication and in plates having 96 shallow wells for culture.
The tenocytes are placed in suspension with a small amount of trypsin. When the cells are released, the action of the trypsin is blocked by the addition of culture medium containing fetal calf serum. After centrifuging, the residue is taken up by complete medium HAM F-12, then the cells are counted using a Malassez or Thoma hemocytometer. Next, a solution of 27,500 cells/ml is prepared in the complete culture medium and 200 μl are placed in each of the central 60 wells of the microplates having 96 wells. Therefore, there are 5,500 cells per well. The plates are placed in incubation at 37° C. in a humid atmosphere of air/CO2 (95%/5%). The test is carried out after 48 hours when the cells adhere to the support. […]
The fluorescence units are read after 40 minutes.

## COc1ccc(-c2cc(=S)ss2)cc1 [anethole-dithiolethione]
  protection against tendon toxicity (cytotoxic effect) of fluoroquinolones in cellular tenocyte model: protects against this tendon toxicity
